In patent US20140163023A1, “DIHYDROPYRROLO PYRIMIDINE DERIVATIVES AS MTOR INHIBITORS” (Cellzome Limited, priority 2011, published 2014):

Assays:
mTOR = molecular target: T1, mTOR (Homo sapiens, UniProt P42345); assay: mTOR kinobeads assay (competition binding in cell lysate, dot blot detection); conditions: 1:1 mix of Jurkat and Ramos cell lysates, read-out: Inhibition values (IC50 in μM) as determined in the kinobeads assay, mTor
T1 construct: endogenous in cells; host or cells: Jurkat (ATCC TIB-152, clone E6-1) and Ramos (ATCC CRL-1596), 1:1 lysate mix
Description: Determination of the Effect of the Compounds According to the Invention on mTOR
(§1) The compounds of the present invention as described were tested in the mTOR kinobeads assay as described below. Briefly, test compounds (at various concentrations) and the affinity matrix (1:1 mixture of beads with immobilized phenylthiazole ligand 1 and beads with immobilized phenylmorpholin-chromen ligand; WO 2009/098021) were added to cell lysate aliquots and allowed to bind to the proteins in the lysate sample. After the incubation time the beads with captured proteins were separated from the lysate. Bound proteins were then eluted and the presence of mTOR, PI3Kα, PI3Kβ, PI3Kγ, PI3Kδ and DNA-dependent protein kinase (DNA-PK) was detected and quantified using a specific antibody in a dot blot procedure and the Odyssey infrared detection system. Dose response curves for individual kinases were generated and IC50 values calculated. Kinobeads assays for PI3 kinases (WO-A 2008/015013) and for kinase selectivity profiling (WO 2009/098021) have been previously described.
(§2) Washing of Affinity Matrix
(§3) The affinity matrix was washed two times with 15 ml of 1×DP buffer containing 0.2% NP40 (IGEPAL® CA-630, Sigma, #13021) and then resupended in 5.5 ml of 1×DP buffer containing 0.2% NP40 (10% beads slurry).
(§4) 5×DP buffer: 250 mM Tris-HCl pH 7.4, 25% Glycerol, 7.5 mM MgCl2, 750 mM NaCl, 5 mM Na3VO4, filter the 5×-lysis buffer through 0.22 μm filter and store in aliquots at −80° C. The 5×DP buffer is diluted to 1×DP buffer containing 1 mM DTT and 25 mM NaF.
(§5) Preparation of Test Compounds
(§6) Stock solutions of test compounds were prepared in DMSO. In a 96 well plate 30 μl solution of diluted test compounds at 5 mM in DMSO were prepared. Starting with this solution a 1:3 dilution series (9 steps) was prepared. For control experiments (no test compound) a buffer containing 2% DMSO was used. Compound Pi-103 (Calbiochem catalogue number 528100) served as a positive control.
(§7) Cell Culture and Preparation of Cell Lysates
(§8) Jurkat cells (ATCC catalogue number TIB-152 Jurkat, clone E6-1) and Ramos cells (ATCC number CRL-1596) were grown in 1 litre Spinner flasks (Integra Biosciences, #182101) in suspension in RPMI 1640 medium (Invitrogen, #21875-034) supplemented with 10% Fetal Bovine Serum (Invitrogen) at a density between 0.15×10^6 and 1.2×10^6 cells/ml. Cells were harvested by centrifugation, washed once with 1×PBS buffer (Invitrogen, #14190-094) and cell pellets were frozen in liquid nitrogen and subsequently stored at −80° C.
(§9) Cells were homogenized in a Potter S homogenizer in lysis buffer: 50 mM Tris-HCl, 0.8% NP40, 5% glycerol, 150 mM NaCl, 1.5 mM MgCl2, 25 mM NaF, 1 mM sodium vanadate, 1 mM DTT, pH 7.5. One complete EDTA-free tablet (protease inhibitor cocktail, Roche Diagnostics, 1873580) per 25 ml buffer was added. The material was dounced 10 times using a mechanized POTTER S, transferred to 50 ml falcon tubes, incubated for 30 minutes on ice and spun down for 10 min at 20,000 g at 4° C. (10,000 rpm in Sorvall SLA600, precooled). The supernatant was transferred to an ultracentrifuge (UZ)-polycarbonate tube (Beckmann, 355654) and spun for 1 hour at 100.000 g at 4° C. (33.500 rpm in Ti50.2, precooled). The supernatant was transferred again to a fresh 50 ml falcon tube, the protein concentration was determined by a Bradford assay (BioRad) and samples containing 50 mg of protein per aliquot were prepared. The samples were immediately used for experiments or frozen in liquid nitrogen and stored frozen at −80° C.
(§10) Cell lysate (approximately 50 mg protein per plate) was thawed in a water bath at room temperature and then kept on ice. To the thawed cell lysate 1×DP 0.8% NP40 buffer containing protease inhibitors (1 tablet for 25 ml buffer; EDTA-free protease inhibitor cocktail; Roche Diagnostics 1873580) was added in order to reach a final protein concentration of 5 mg/ml total protein. For the kinobeads experiment a 1:1 mix of Jurkat and Ramos cell lysates was used. […]

PI3Kα = molecular target: T2, PI3Kα (Homo sapiens, UniProt P42336); assay: kinobeads assay, PI3Kα; assay type: binding; conditions: 1:1 mix of Jurkat and Ramos cell lysates, read-out: Inhibition values (IC50 in μM) as determined in the kinobeads assay, PI3Kα
T2 construct: endogenous in cells; host or cells: Jurkat (ATCC TIB-152, clone E6-1) and Ramos (ATCC CRL-1596), 1:1 lysate mix
T2 sequence (P42336 whole entry): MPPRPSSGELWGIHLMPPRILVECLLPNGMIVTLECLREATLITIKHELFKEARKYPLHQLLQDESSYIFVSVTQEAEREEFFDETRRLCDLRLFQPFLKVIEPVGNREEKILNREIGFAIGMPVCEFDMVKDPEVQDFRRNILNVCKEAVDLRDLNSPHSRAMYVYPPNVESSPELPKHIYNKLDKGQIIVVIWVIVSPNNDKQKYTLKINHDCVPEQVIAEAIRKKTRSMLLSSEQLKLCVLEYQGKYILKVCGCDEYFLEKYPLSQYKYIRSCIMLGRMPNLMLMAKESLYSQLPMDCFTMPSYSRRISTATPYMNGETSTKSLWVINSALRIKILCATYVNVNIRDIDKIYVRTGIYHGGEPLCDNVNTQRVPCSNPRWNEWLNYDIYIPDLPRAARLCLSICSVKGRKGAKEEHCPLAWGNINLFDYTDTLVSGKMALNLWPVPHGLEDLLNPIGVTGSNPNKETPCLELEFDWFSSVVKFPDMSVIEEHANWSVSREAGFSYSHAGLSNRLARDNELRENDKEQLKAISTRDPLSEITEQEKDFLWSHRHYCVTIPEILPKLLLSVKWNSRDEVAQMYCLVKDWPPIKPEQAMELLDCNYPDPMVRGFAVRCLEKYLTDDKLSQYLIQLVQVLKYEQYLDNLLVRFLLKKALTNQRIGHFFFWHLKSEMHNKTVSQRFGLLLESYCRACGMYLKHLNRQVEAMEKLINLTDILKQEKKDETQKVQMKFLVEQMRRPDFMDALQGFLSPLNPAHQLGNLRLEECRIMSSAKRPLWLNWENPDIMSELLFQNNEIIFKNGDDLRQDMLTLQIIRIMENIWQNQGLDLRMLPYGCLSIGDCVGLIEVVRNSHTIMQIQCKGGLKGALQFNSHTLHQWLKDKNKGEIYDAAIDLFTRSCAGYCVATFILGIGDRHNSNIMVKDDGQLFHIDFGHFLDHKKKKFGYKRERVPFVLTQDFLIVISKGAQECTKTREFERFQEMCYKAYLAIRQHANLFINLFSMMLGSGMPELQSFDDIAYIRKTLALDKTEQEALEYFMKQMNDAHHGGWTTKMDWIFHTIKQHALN
T2 sequence (P27986 whole entry partner): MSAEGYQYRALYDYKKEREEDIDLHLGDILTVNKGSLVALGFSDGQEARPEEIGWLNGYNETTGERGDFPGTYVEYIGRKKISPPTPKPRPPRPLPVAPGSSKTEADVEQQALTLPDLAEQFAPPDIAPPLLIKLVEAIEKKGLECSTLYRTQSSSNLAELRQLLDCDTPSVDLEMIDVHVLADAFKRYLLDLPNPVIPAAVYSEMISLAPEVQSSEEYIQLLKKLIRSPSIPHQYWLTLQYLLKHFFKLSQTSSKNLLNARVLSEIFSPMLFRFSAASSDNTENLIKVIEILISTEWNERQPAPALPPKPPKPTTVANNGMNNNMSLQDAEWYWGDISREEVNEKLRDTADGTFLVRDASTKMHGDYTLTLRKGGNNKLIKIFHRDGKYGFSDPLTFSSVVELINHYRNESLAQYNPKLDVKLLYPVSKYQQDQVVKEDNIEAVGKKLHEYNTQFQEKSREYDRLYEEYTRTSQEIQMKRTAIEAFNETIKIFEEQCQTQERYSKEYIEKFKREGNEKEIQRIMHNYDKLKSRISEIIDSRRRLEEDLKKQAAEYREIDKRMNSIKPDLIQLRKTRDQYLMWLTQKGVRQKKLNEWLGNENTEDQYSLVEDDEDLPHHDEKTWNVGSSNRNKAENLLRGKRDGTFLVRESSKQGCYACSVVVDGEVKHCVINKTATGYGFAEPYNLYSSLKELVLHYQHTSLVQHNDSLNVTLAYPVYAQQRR
Description: as §1, §2, §3, §4, §5, §6, §7, §8, §9
as §10, with “used. The diluted cell lysate was stored on ice.” for “used.”

PI3Kβ = molecular target: T3, PI3Kβ (Homo sapiens, UniProt P42338); assay: kinobeads assay, PI3Kβ; assay type: binding; conditions: 1:1 mix of Jurkat and Ramos cell lysates, read-out: Inhibition values (IC50 in μM) as determined in the kinobeads assay, PI3Kβ
T3 construct: endogenous in cells; host or cells: Jurkat (ATCC TIB-152, clone E6-1) and Ramos (ATCC CRL-1596), 1:1 lysate mix
T3 sequence (P42338 whole entry): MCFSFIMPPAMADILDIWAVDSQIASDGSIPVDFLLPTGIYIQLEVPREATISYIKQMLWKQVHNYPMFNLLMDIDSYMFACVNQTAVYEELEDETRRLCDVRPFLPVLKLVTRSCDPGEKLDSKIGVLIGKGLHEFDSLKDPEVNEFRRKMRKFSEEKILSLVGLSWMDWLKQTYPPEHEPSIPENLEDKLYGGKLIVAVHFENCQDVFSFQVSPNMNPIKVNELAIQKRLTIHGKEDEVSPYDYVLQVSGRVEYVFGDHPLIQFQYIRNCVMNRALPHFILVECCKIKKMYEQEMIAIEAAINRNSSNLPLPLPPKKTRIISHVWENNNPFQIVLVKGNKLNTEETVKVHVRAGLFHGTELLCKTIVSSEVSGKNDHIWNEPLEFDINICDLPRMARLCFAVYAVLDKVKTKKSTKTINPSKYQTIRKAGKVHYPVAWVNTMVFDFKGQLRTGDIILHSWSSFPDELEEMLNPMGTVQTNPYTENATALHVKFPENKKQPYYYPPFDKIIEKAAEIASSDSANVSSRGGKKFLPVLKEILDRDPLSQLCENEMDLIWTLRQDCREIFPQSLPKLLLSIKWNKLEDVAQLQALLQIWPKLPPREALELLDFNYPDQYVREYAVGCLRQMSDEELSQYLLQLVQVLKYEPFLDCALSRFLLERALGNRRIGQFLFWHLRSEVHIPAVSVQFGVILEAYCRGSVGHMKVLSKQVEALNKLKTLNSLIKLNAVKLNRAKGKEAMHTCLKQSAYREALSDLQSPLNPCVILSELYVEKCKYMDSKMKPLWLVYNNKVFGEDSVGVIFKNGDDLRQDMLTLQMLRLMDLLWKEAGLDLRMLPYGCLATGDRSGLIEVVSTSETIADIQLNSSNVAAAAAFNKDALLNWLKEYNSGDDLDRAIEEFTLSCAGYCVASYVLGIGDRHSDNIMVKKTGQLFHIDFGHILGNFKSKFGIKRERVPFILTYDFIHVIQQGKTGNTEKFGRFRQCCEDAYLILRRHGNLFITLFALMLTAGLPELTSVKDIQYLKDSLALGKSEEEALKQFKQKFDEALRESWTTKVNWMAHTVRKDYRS
T3 sequence (P27986 whole entry partner): as the sequence (P27986 whole entry partner) above
Description: as §1, §2, §3, §4, §5, §6, §7, §8, §9
as §10, with “used. The diluted cell lysate was stored on ice.” for “used.”

PI3Kδ = molecular target: T4, PI3Kδ (Homo sapiens, UniProt O00329); assay: kinobeads assay, PI3Kδ; assay type: binding; conditions: 1:1 mix of Jurkat and Ramos cell lysates, read-out: Inhibition values (IC50 in μM) as determined in the kinobeads assay, PI3Kδ
T4 construct: endogenous in cells; host or cells: Jurkat (ATCC TIB-152, clone E6-1) and Ramos (ATCC CRL-1596), 1:1 lysate mix
T4 sequence (O00329 whole entry): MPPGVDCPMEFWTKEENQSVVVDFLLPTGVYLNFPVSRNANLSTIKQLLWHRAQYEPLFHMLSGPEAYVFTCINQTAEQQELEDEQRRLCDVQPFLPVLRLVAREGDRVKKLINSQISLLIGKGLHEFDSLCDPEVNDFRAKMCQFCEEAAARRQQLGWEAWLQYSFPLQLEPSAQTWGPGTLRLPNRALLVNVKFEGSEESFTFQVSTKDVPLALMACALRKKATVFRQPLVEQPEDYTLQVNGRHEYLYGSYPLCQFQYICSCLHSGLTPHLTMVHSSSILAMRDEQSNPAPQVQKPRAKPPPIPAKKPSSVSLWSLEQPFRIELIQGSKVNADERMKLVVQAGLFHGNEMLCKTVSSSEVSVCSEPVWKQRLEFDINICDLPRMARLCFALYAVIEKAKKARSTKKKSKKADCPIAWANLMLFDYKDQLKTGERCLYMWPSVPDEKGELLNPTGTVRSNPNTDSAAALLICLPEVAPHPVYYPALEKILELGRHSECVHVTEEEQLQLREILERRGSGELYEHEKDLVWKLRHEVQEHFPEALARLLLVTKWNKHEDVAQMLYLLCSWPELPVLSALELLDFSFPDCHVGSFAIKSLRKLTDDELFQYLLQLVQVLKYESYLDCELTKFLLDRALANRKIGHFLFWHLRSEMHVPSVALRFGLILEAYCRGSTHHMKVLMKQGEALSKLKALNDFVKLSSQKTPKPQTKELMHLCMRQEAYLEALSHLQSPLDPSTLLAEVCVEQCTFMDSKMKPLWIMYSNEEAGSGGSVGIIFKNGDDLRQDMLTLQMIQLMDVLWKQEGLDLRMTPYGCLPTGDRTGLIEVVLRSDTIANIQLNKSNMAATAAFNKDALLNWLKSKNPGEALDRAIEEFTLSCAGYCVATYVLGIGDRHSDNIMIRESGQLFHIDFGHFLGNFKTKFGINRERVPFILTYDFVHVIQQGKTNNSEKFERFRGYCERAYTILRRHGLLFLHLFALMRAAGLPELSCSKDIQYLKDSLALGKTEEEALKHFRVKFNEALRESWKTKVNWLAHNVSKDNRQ
T4 sequence (P27986 whole entry partner): as the sequence (P27986 whole entry partner) above
Description: as §1, §2, §3, §4, §5, §6, §7, §8, §9
as §10, with “used. The diluted cell lysate was stored on ice.” for “used.”

PI3Kγ = molecular target: T5, PI3Kγ (Homo sapiens, UniProt P48736); assay: kinobeads assay, PI3Kγ; assay type: binding; conditions: 1:1 mix of Jurkat and Ramos cell lysates, read-out: Inhibition values (IC50 in μM) as determined in the kinobeads assay, PI3Kγ
T5 construct: endogenous in cells; host or cells: Jurkat (ATCC TIB-152, clone E6-1) and Ramos (ATCC CRL-1596), 1:1 lysate mix
T5 sequence (P48736 whole entry): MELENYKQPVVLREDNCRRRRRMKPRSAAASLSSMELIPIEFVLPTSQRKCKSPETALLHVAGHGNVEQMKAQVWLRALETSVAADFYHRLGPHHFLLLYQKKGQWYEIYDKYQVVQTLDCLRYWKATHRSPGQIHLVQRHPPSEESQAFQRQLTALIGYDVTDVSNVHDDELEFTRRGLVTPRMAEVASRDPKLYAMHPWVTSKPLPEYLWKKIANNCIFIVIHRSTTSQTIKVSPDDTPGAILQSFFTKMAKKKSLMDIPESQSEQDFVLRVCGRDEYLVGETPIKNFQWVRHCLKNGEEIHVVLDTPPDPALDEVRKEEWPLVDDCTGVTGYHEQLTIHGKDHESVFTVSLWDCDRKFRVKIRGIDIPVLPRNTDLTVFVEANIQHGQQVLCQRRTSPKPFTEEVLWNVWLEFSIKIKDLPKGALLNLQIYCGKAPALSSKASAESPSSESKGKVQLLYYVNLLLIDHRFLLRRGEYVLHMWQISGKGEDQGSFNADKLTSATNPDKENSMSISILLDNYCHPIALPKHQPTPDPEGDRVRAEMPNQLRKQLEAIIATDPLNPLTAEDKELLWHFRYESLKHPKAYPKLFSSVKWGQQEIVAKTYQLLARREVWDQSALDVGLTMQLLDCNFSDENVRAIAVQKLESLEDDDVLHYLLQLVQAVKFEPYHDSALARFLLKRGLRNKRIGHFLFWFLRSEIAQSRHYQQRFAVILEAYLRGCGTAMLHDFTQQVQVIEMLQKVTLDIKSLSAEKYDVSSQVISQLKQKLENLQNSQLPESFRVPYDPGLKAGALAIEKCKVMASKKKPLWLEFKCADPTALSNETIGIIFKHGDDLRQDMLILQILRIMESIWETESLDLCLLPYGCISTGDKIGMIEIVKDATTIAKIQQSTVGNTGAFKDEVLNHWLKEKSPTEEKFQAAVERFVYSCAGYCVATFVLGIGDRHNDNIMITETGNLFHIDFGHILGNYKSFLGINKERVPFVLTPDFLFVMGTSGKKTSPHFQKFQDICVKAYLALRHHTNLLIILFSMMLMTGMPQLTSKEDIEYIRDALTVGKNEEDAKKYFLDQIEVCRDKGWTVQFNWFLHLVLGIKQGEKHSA
Description: as §1, §2, §3, §4, §5, §6, §7, §8, §9
as §10, with “used. The diluted cell lysate was stored on ice.” for “used.”

[1] = molecular target: T6, DNA-dependent protein kinase (DNA-PK) (Homo sapiens, UniProt P78527); assay: kinobeads assay, DNA-PK; assay type: binding; conditions: 1:1 mix of Jurkat and Ramos cell lysates, read-out: Inhibition values (IC50 in μM) as determined in the kinobeads assay, DNA-PK
T6 construct: endogenous in cells; host or cells: Jurkat (ATCC TIB-152, clone E6-1) and Ramos (ATCC CRL-1596), 1:1 lysate mix
Description: as §1, §2, §3, §4, §5, §6, §7, §8, §9
as §10, with “used. The diluted cell lysate was stored on ice.” for “used.”

| SMILES | IC50 (mTOR) [µM] | IC50 (PI3Kα) [µM] | IC50 (PI3Kβ) [µM] | IC50 (PI3Kδ) [µM] | IC50 (PI3Kγ) [µM] | IC50 [1] [µM] |
| --- | --- | --- | --- | --- | --- | --- |
| C[C@H]1COCCN1C(=O)Nc1ccc(-c2nc(N3CCOC[C@@H]3C)nc3c2CNC3)cc1 [Example 16, (S)-3-methyl-N-(4-(2-((S)-3-methylmorpholino)-6,7-dihydro-5H-pyrrolo[3,4-d]pyrimidin-4-yl)phenyl)morpholine-4-carboxamide] | 1 to 10 | > 100 | > 100 | > 100 | > 100 | > 100 |
| CCNC(=O)N1Cc2nc(N3CCOC[C@@H]3C)nc(-c3ccc(NC(=O)NC4CC4)cc3)c2C1 [Example 17, (S)-4-(4-(3-cyclopropylureido)phenyl)-N-ethyl-2-(3-methylmorpholino)-5H-pyrrolo[3,4-d]pyrimidine-6(7H)-carboxamide] | 1 to 10 | 10 to 100 | > 100 | > 100 | > 100 | > 100 |
| C[C@H]1COCCN1c1nc2c(c(-c3ccc(NC(=O)NC4CC4)cc3)n1)CN(C(=O)CN(C)C)C2 [Example 20, (S)-1-cyclopropyl-3-(4-(6-(2-(dimethylamino)acetyl)-2-(3-methylmorpholino)-6,7-dihydro-5H-pyrrolo[3,4-d]pyrimidin-4-yl)phenyl)urea] | 1 to 10 | > 100 | 10 to 100 | 10 to 100 | > 100 | > 100 |
| C[C@H]1COCCN1c1nc2c(c(-c3ccc(NC(=O)NC4CC4)cc3)n1)CN(C(=O)CCN(C)C)C2 [Example 21, (S)-1-cyclopropyl-3-(4-(6-(3-(dimethylamino)propanoyl)-2-(3-methylmorpholino)-6,7-dihydro-5H-pyrrolo[3,4-d]pyrimidin-4-yl)phenyl)urea] | 1 to 10 | > 100 | 10 to 100 | 10 to 100 | > 100 | > 100 |
| C[C@H]1COCCN1c1nc2c(c(-c3ccc(NC(=O)Nc4ccncc4)cc3)n1)CNC2 [Example 24, (S)-1-(4-(2-(3-methylmorpholino)-6,7-dihydro-5H-pyrrolo[3,4-d]pyrimidin-4-yl)phenyl)-3-(pyridin-4-yl)urea] | 1 to 10 | 10 to 100 | 10 to 100 | 10 to 100 | 10 to 100 | > 100 |
| C[C@H]1COCCN1c1nc2c(c(-c3ccc(NC(=O)Nc4cccc(O)n4)cc3)n1)CNC2 [Example 25, (S)-1-(6-hydroxypyridin-2-yl)-3-(4-(2-(3-methylmorpholino)-6,7-dihydro-5H-pyrrolo[3,4-d]pyrimidin-4-yl)phenyl)urea] | 0.1 to 1 | 1 to 10 | 1 to 10 | 10 to 100 | 1 to 10 | > 100 |
| C[C@@H]1COCCN1c1nc2c(c(-c3ccc(NC(=O)NC4CC4)cc3)n1)CNC2 [Example 26, (R)-1-cyclopropyl-3-(4-(2-(3-methylmorpholino)-6,7-dihydro-5H-pyrrolo[3,4-d]pyrimidin-4-yl)phenyl)urea] | 0.1 to 1 | > 100 | 10 to 100 | 10 to 100 | > 100 | > 100 |
| COCC(=O)N1Cc2nc(N3CCOC[C@@H]3C)nc(-c3ccc(NC(=O)NC4CC4)cc3)c2C1 [Example 27, (S)-1-cyclopropyl-3-(4-(6-(2-methoxyacetyl)-2-(3-methylmorpholino)-6,7-dihydro-5H-pyrrolo[3,4-d]pyrimidin-4-yl)phenyl)urea] | 1 to 10 | 10 to 100 | 10 to 100 | 10 to 100 | > 100 | > 100 |

Further lines, results first:

| IC50 (mTOR) [µM] | IC50 (PI3Kα) [µM] | IC50 (PI3Kβ) [µM] | IC50 (PI3Kδ) [µM] | IC50 (PI3Kγ) [µM] | IC50 [1] [µM] | SMILES |
| --- | --- | --- | --- | --- | --- | --- |
| 0.1 to 1 | > 100 | > 100 | > 100 | > 100 | > 100 | C[C@H]1COCCN1c1nc2c(c(-c3ccc(NC(=O)NC4CC4)cc3)n1)CN(S(C)(=O)=O)C2 [Example 15, (S)-1-cyclopropyl-3-(4-(2-(3-methylmorpholino)-6-(methylsulfonyl)-6,7-dihydro-5H-pyrrolo[3,4-d]pyrimidin-4-yl)phenyl)urea] |
| 0.1 to 1 | > 100 | > 100 | > 100 | > 100 | 10 to 100 | O=C(Nc1ccc(-c2nc(N3CC4CCC(C3)O4)nc3c2CNC3)cc1)NC1CC1 [Example 18, 1-(4-(2-(8-oxa-3-azabicyclo[3.2.1]octan-3-yl)-6,7-dihydro-5H-pyrrolo[3,4-d]pyrimidin-4-yl)phenyl)-3-cyclopropylurea] |
| ≤ 0.1 | 1 to 10 | 10 to 100 | 10 to 100 | 1 to 10 | 10 to 100 | C[C@H]1COCCN1c1nc2c(c(-c3ccc(NC(=O)NCCO)cc3)n1)CNC2 [Example 19, (S)-1-(2-hydroxyethyl)-3-(4-(2-(3-methylmorpholino)-6,7-dihydro-5H-pyrrolo[3,4-d]pyrimidin-4-yl)phenyl)urea] |
| 0.1 to 1 | 10 to 100 | 10 to 100 | 1 to 10 | 10 to 100 | > 100 | C[C@H]1COCCN1c1nc2c(c(-c3ccc(NC(=O)NC4CC4)cc3)n1)CN(C(=O)CO)C2 [Example 22, (S)-1-cyclopropyl-3-(4-(6-(2-hydroxyacetyl)-2-(3-methylmorpholino)-6,7-dihydro-5H-pyrrolo[3,4-d]pyrimidin-4-yl)phenyl)urea] |
| 0.1 to 1 | 10 to 100 | 10 to 100 | 10 to 100 | > 100 | > 100 | C[C@H]1COCCN1c1nc2c(c(-c3ccc(NC(=O)NC4CC4)cc3)n1)CN(C(=O)CC#N)C2 [Example 23, (S)-1-(4-(6-(2-cyanoacetyl)-2-(3-methylmorpholino)-6,7-dihydro-5H-pyrrolo[3,4-d]pyrimidin-4-yl)phenyl)-3-cyclopropylurea] |
